Results published in PMC11329928, “Design, synthesis and structure-activity relationship (SAR) studies of an unusual class of non-cationic fatty amine-tripeptide conjugates as novel synthetic antimicrobial agents” (Frontiers in Pharmacology, 2024).

Assays:
[1] = tested on: Streptococcus pneumoniae R6; test: Growth inhibition / lysis screening of planktonic cultures (OD550/600); type: cell-based; design: key: (+++) full inhibition; (++) partial inhibition; (+) growth retardation; -: (−) no effect; conditions: S. pneumoniae R6, 50 and 100 μM compound added at early logarithmic phase (T1), OD550/600 followed 10 h, 37°C
Description: (§1) Planktonic cultures of selected pathogens (S. pneumoniae R6, S. pyogenes ^T, Staphylococcus aureus ^T, Escherichia coli DH10B, and Pseudomonas aeruginosa PAO1 strains) on early logarithmic-phase (T1) were assayed for their sensitivity to a broad range of DICAM compounds, as indicated in Table 1. Their bacteriostatic or lytic effect was first tested by measuring the variation of the OD550/600 as a function of time (10 h) when (50/100 μM) DICAMs were added, compared to untreated controls. The screening results, summarized in Table 1, evidenced that a potent antimicrobial activity may exist even when the negative charge of the peptide was higher than in the prototype compounds.
(§2) Susceptibility to DICAMs was first tested by growth-inhibition assays at 50 and 100 μM of compound. Briefly, working solutions at 5 mM or 10 mM DICAM in pure DMSO were prepared from DICAM stocks (40 mM in pure DMSO) and diluted with fresh culture medium to 5× the desired final concentration. Aliquots (50 µL) of these solutions were added to 200 µL of bacterium cultures grown to early exponential phase (OD550/600 c. a. 0.15–0.2 in sterile 96-well plates (Cultek, Spain). Incubation continued for 10 h at 37°C and turbidity (OD550/600) values were measured every 20 min to monitor growth and lysis, using a VersaMax microplate reader (Molecular Devices; United Kingdom). Next, the activity dependence on DICAM’s dose was examined by measuring the turbidity of treated and untreated cultures as a function of time. Also, the decay of bacterial viability (CFU/mL) at selected times of treatment was assessed by colony counting on LB-agar or TSA plates after overnight incubation at 37°C. By default, 10 μL of 10-fold serially diluted samples were plated, which set the lower detection limit at 10^2 CFU/mL (10^1 CFU/mL when 100 μL of the undiluted sample was seeded).

[2] = RP-HPLC retention time used to determine hydrophobicity; type: physicochemical; conditions: analytical RP-HPLC, C18 Sunfire column (4.6 mm × 150 mm, 3.5 μm); A = 0.05% TFA in water, B = acetonitrile; 10% to 100% B in 20 min then isocratic 100% B 10 min; 217 and 254 nm; used as measure of hydrophobicity
Description: The purity of the lipopeptides was checked by analytical RP-HPLC on an Agilent Infinity instrument equipped with a Diode Array and a C18 Sunfire column (4.6 mm × 150 mm, 3.5 μm). As mobile phase A:B mixtures were used, where A = 0.05% TFA in water and B = acetonitrile. The samples were analyzed at 217 and 254 nm in a gradient from 10% of B to 100% of B in 20 min followed by isocratic 100% of B in 10 min.
Retention times were used to determine the hydrophobicity ([Neubauer et al., 2020]). HRMS (EI+) was carried out in an Agilent 6,520 Accurate-Mass Q-TOF LC/MS spectrometer using water/acetonitrile mixtures. Results can be found in Supplementary Section S3, S4.

Streptococcus pyogenes T = test: Growth inhibition screening of planktonic cultures (OD550/600); type: cell-based; design: key: (+++) full inhibition; (++) partial inhibition; (+) growth retardation; -: (−) no effect; conditions: S. pyogenes T, 50 and 100 μM compound added at T1, OD550/600 followed 10 h, 37°C
Description: as §1, §2

[3] = tested on: Pseudomonas aeruginosa PAO1; test: as above; type: cell-based; design: key: (+++) full inhibition; (++) partial inhibition; (+) growth retardation; -: (−) no effect; conditions: P. aeruginosa PAO1, 50 and 100 μM compound added at T1, OD550/600 followed 10 h, 37°C
Description: as §1, §2

Escherichia coli DH10B = test: as above; type: cell-based; design: key: (+++) full inhibition; (++) partial inhibition; (+) growth retardation; -: (−) no effect; conditions: E. coli DH10B, 50 and 100 μM compound added at T1, OD550/600 followed 10 h, 37°C
Description: as §1, §2

Staphylococcus aureus T = test: as above; type: cell-based; design: key: (+++) full inhibition; (++) partial inhibition; (+) growth retardation; -: (−) no effect; conditions: S. aureus T, 50 and 100 μM compound added at T1, OD550/600 followed 10 h, 37°C
Description: as §1, §2

[4] = Calcein release from LUVs, all tested compositions; conditions: 10 μM DICAM, 25°C, vesicle buffer pH 7.4, calcein release
Description: (§3) LUVs were prepared for calceine liberation assays as described ([Chongsiriwatana and Barron, 2009]). Lipid composition (mole %) of LUVs was: POPG (100), POPG:CL (80:20), POPG:CL:DOPE ([…]), and POPG:CL:GlcDAG (75:5:20). Briefly, the nitrogen-dried lipid mixture was dissolved at 1.25 mM with 100 mM calceine in vesicle buffer (10 mM Tris, 140 mM NaCl, 0.5 mM EDTA, pH 7.4) followed by five thaw-freeze cycles. Calceine-entrapped LUVs were prepared by extrusion through 100 nm polycarbonate membranes (Avanti Polar Lipids). Non-entrapped calceine was separated from LUVs by gel filtration on a Sephacryl® S200-HR column (Sigma). LUVs permeabilization was monitored at 25°C by fluorescence emission at 550 nm (λex = 480 nm) as a function of time in a Fluoromax-4 spectrofluorometer (Horiba, France) using agitation. Signal stabilization of samples (1,500 µL vesicle buffer plus 45 µL LUVs) was recorded for 5 min before 10 µM final DICAM addition, and calcein release was monitored for a maximum of 20 min. After incubation, samples were solubilized in Triton X-100 (0.025%) and the fluorescence signal recorded thereafter was used to normalize the entire data set. Solubilization of DICAM-untreated LUVs in Triton X-100 was used as a positive control. No perturbation was detected in controls containing DMSO.

[5] = Calcein release from LUVs; conditions: 10 μM DICAM, 25°C, vesicle buffer pH 7.4, calcein release
Description: as §3

S. pyogenes T membrane [6] = test: Membrane permeation, SYTOX Green; type: cell-based, Streptococcus pyogenes; conditions: S. pyogenes T in PBS pH 7.2, 37°C
Description: (§4) Permeation and depolarization of S. pyogenes ^T membrane by DICAMs were assayed with the fluorescent probes SYTOX Green and DiSC3(5), respectively, in a Varioskan Flash microplate reader (Thermo Scientific; Spain) using FluoroNunc 96-well plates (Thermo Scientific; Spain). For permeation assays, cells were grown to an OD550 ≈ 0.3, washed once with PBS pH 7.2 (3,800 × g, 7 min, room temperature), and adjusted to a final OD550 ≈ 0.4 (∼10^8 CFU/mL) with the same buffer before mixing in the dark with SYTOX Green (5 µM final concentration). One hundred µL of this suspension was dispensed per plate well and the signal stabilization was monitored for 15 min (λex = 485 nm; λem = 520 nm). Then, 100 µL of two-fold serially diluted lipopeptide samples was added and changes in fluorescence intensity were registered for 60 min at 37°C. SYTOX Green (900 Da) binds to intracellular DNA when the cell membrane is damaged, thereby increasing fluorescence intensity ([Roth et al., 1997]). Positive controls (100% membrane permeabilization) were carried out by adding Titron X-100 (0.01% final concentration) to untreated bacterial samples ([Rathinakumar et al., 2009]). For membrane depolarization assays, 180 µL of an OD550 ≈ 0.2 culture (BHI; ≈ 10^7 CFU/mL) supplemented with DiSC3(5) (1 µM final concentration) was distributed per well, and signal stabilization was registered for 30 min (λex = 622 nm; λem = 670 nm) ([Te Winkel et al., 2016]). Subsequently, 20 µL of a two-fold serial dilution of lipopeptide in culture medium was added, and fluorescence intensity was recorded for 60 min at 37°C. Partition of DiSC3(5) to the surface of polarized cells decreases the probe fluorescence, and its release, caused by membrane depolarization, results in an increase in fluorescence. […] The background signal of controls with bacterial cells without the fluorescent probe, as well as the dye fluorescence in the presence of the tested compounds without bacteria, were also registered. No change in the fluorescence intensity of the probes occurred upon DICAM addition in the absence of bacterial cells.

S. pyogenes T membrane [7] = test: Membrane depolarization, DiSC3(5); type: cell-based, Streptococcus pyogenes; conditions: S. pyogenes T in BHI, 37°C
Description: as §4

Row | Substance | Growth halt or lysis (50/100 μM), Spn [1] | Retention time [2] | Growth halt or lysis (50/100 μM), Spy T (Streptococcus pyogenes T) | Growth halt or lysis (50/100 μM), Pa [3] | Growth halt or lysis (50/100 μM), Ec (Escherichia coli DH10B) | Growth halt or lysis (50/100 μM), Sa T (Staphylococcus aureus T) | Permeation of model membranes (LUVs), result in words [4] | Permeation of DOPE:POPG:CL (80:15:5) LUVs, result in words [5] | Membrane permeation (SYTOX Green), result in words (S. pyogenes T membrane [6]) | Membrane depolarization (DiSC3(5)), result in words (S. pyogenes T membrane [7])
1 | Asn- Pro -NH-C18H37 · HCl [DICAM 13] | - | 20.18 min | + | - | - | - | able to permeate all tested model membranes |  |  | 
2 | Asn- Pro -Phe-NH-C18H37 · HCl [DICAM 7] | - | 22.21 min | - |  |  |  |  | particularly effective |  | 
3 | Asn- Pro -Tyr(Bzl)-NH-C18H37 ·HCl [DICAM 6] | - | 22.10 min | - | - | - | - |  | particularly effective | no depolarization or membrane permeation | no depolarization
